Measurements published in patent US20140107166A1, “HISTONE DEACETYLASE INHIBITORS AND METHODS OF USE THEREOF” (DANA-FARBER CANCER INSTITUTE, INC., priority 2011, published 2014).

System: HDACs
Experiment: HDAC deacetylase inhibition assay (trypsin-coupled fluorescent substrate)
Format: biochemical
Protocol: Selected compounds of the invention were tested for activity against a number of HDACs. The assays were performed substantially as described in PCT Patent Application WO/2008/091349. In brief, a target substrate is incubated with an HDAC or other protein with deacetylase activity in the presence of a test compound. In certain embodiments, the target substrate includes an acetylated lysine residue. Deacetylation of the substrate allows trypsin or another protease to cleave the substrate, thereby releasing a fluorescent probe. Fluorescence can be continuously monitored in order to determine the ability of the test compound to inhibit the deacetylation activity. The HDAC or other enzyme may be purified or used crude in the inventive assay. In certain embodiments, the assay is a cell-free assay.

inhibition of HDAC (result in words): inhibitor of HDAC
Compound: CCCCOc1ccc(CC(=O)NO)cc1 [bufexamac]
